Reference: doi:10.1101/2025.05.27.25328359, “OSBPL11 is an African-specific locus associated with 25-hydroxyvitamin D concentrations and cardiometabolic health” (medRxiv, 2025)

Biological target: T1, OSBPL11 (OSBPL11-myc-His) (Homo sapiens, UniProt Q9BXB4)
T1 construct: full length, C-terminal myc-His tag (pcDNA3.1(+)myc/his C), transiently expressed in 293T cells; 100,000 g supernatant (S100) of lysate, not purified
T1 sequence (Q9BXB4 1-747): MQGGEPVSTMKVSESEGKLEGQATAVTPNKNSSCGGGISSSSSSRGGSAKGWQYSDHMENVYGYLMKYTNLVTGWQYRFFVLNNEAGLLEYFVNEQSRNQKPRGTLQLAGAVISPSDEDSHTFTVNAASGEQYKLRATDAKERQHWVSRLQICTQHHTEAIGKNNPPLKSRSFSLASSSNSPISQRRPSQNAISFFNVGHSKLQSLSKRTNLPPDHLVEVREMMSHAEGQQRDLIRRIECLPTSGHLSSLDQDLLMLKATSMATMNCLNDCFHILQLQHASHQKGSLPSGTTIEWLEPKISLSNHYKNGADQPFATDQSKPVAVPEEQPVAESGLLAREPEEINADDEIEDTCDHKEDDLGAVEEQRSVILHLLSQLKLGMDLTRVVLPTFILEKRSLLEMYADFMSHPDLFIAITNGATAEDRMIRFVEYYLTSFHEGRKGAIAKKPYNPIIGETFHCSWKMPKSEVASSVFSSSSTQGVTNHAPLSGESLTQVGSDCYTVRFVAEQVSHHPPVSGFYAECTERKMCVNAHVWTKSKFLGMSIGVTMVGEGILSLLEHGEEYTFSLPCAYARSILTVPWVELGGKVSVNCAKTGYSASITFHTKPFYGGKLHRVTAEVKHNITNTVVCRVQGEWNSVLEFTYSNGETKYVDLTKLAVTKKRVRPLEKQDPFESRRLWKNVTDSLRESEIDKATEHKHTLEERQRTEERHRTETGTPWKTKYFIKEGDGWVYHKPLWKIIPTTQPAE
Assay: [3H]-25-hydroxycholesterol competition binding, charcoal/dextran, S100 lysate
Assay type: biochemical

With C[C@H](CCCC(C)(C)O)[C@H]1CC[C@H]2[C@@H]3CC=C4C[C@@H](O)CC[C@]4(C)[C@H]3CC[C@]12C [25-hydroxycholesterol] the Ki was 32 nM.
